Laboratory results taken from ChEMBL document CHEMBL4371026, “Prodrugs of the cancer cell selective anti-cancer agent (Z)-2-(1H-indol-3-yl)-3-(isoquinolin-5-yl)acrylonitrile (A131) are orally efficacious in a mouse model of resistant colon cancer” (Bioorg Med Chem Lett, 2019).
The source made the active and inactive calls. The calls are words filed in the database; no cut-off is given here.

Key:
BJ [1] = assay: Induction of mitosis in transformed human BJ cells assessed as increase in pH3 Ser10 expression at 5 uM after 24 hrs by Western blot analysis relative to control; assay type: functional
BJ [2] = assay: Induction of autophagy in transformed human BJ cells assessed as increase in LC3-2 to LC3-1 ratio at 5 uM after 24 hrs by Western blot analysis relative to control; assay type: functional
[3] = Prodrug conversion in pH 7.4 10% FBS assessed as formation of A131 measured at 3 hrs by LC-MS/MS analysis relative to parent compound; assay type: ADME; settings: cattle, pH 7.4, 3 h
[4] = Prodrug conversion in pH 7.4 10% FBS assessed as formation of A131 measured at 1 hr by LC-MS/MS analysis relative to parent compound; assay type: ADME; settings: cattle, pH 7.4, 1 h
[5] = Half life in simplified simulated gastric fluid; assay type: ADME
[6] = Prodrug conversion in human plasma assessed as formation of A131 by measuring apparent half life; assay type: ADME, cell-free
[7] = Stability in simplified simulated gastric fluid assessed as parent compound remaining at 24 hrs; assay type: ADME; settings: read-out: Stability
[8] = Stability in acidic pH assessed as compound hydrolysis; assay type: physicochemical
[9] = Half life in simulated gastric fluid TS; assay type: ADME
[10] = Stability in human plasma assessed as compound hydrolysis measured within 15 mins; assay type: ADME, cell-free; settings: read-out: Drug degradation
[11] = Prodrug conversion in pH 7.4 phosphate buffer saline assessed as formation of A131 by measuring apparent half life; assay type: ADME
[12] = Prodrug conversion in mouse plasma assessed as formation of A131 by measuring apparent half life; assay type: ADME, cell-free
[13] = Stability in simulated gastric fluid TS assessed as parent compound remaining at 24 hrs; assay type: ADME; settings: read-out: Stability
[14] = Prodrug conversion in pH 7.4 10% FBS assessed as formation of A131 measured at 6 hrs by LC-MS/MS analysis relative to parent compound; assay type: ADME; settings: cattle, pH 7.4, 6 h
[15] = Prodrug conversion in pH 7.4 10% FBS assessed as formation of A131 measured at 2 hrs by LC-MS/MS analysis relative to parent compound; assay type: ADME; settings: cattle, pH 7.4, 2 h
[16] = Prodrug conversion in pH 7.4 10% FBS assessed as formation of A131 by measuring apparent half life; assay type: ADME; settings: cattle
HCT-15 [17] = assay: Anticancer activity against paclitaxel-resistant human HCT15 cells xenografted in BALB/c athymic mouse assessed as tumor volume at 80 mg/kg, po administered twice a day for 12 days measured on day 9 (reference value: 546 +/- 87 mm3); assay type: functional
[18] = Solubility of the compound in 10%DMSO/50%PEG400/40%H2O; assay type: physicochemical
HCT-15 [19] = assay: Anticancer activity against paclitaxel-resistant human HCT15 cells xenografted in BALB/c athymic mouse assessed as tumor volume at 80 mg/kg, po administered twice a day for 12 days measured on day 3 (reference value: 180 +/- 36 mm3); assay type: functional
HCT-15 [20] = assay: Anticancer activity against paclitaxel-resistant human HCT15 cells xenografted in BALB/c athymic mouse assessed as tumor volume at 80 mg/kg, po administered twice a day for 12 days measured on day 5 (reference value: 329 +/- 45 mm3); assay type: functional
HCT-15 [21] = assay: Anticancer activity against paclitaxel-resistant human HCT15 cells xenografted in BALB/c athymic mouse assessed as tumor volume at 40 mg/kg, ip administered twice a day for 12 days measured on day 9 (reference value: 546 +/- 87 mm3); assay type: functional
HCT-15 [22] = assay: Anticancer activity against paclitaxel-resistant human HCT15 cells xenografted in BALB/c athymic mouse assessed as tumor volume at 80 mg/kg, po administered twice a day for 12 days measured on day 1 (reference value: 110 +/- 11 mm3); assay type: functional
HCT-15 [23] = assay: Anticancer activity against paclitaxel-resistant human HCT15 cells xenografted in BALB/c athymic mouse assessed as tumor volume at 40 mg/kg, ip administered twice a day for 12 days measured on day 1 (reference value: 110 +/- 11 mm3); assay type: functional
HCT-15 [24] = assay: Anticancer activity against paclitaxel-resistant human HCT15 cells xenografted in BALB/c athymic mouse assessed as tumor volume at 80 mg/kg, po administered twice a day for 12 days measured on day 12 (reference value: 779 +/- 144 mm3); assay type: functional
HCT-15 [25] = assay: Anticancer activity against paclitaxel-resistant human HCT15 cells xenografted in BALB/c athymic mouse assessed as tumor volume at 80 mg/kg, po administered twice a day for 12 days measured on day 7 (reference value: 495 +/- 109 mm3); assay type: functional
HCT-15 [26] = assay: Anticancer activity against paclitaxel-resistant human HCT15 cells xenografted in BALB/c athymic mouse assessed as tumor volume at 40 mg/kg, ip administered twice a day for 12 days measured on day 12 (reference value: 779 +/- 144 mm3); assay type: functional
HCT-15 [27] = assay: Anticancer activity against paclitaxel-resistant human HCT15 cells xenografted in BALB/c athymic mouse assessed as tumor volume at 40 mg/kg, ip administered twice a day for 12 days measured on day 3 (reference value: 180 +/- 36 mm3); assay type: functional
HCT-15 [28] = assay: Anticancer activity against paclitaxel-resistant human HCT15 cells xenografted in BALB/c athymic mouse assessed as tumor growth inhibition at 80 mg/kg, po administered twice a day for 12 days relative to control; assay type: functional; settings: HCT-15, po, 288 h, read-out: TGI
HCT-15 [29] = assay: Anticancer activity against paclitaxel-resistant human HCT15 cells xenografted in BALB/c athymic mouse assessed as tumor volume at 40 mg/kg, ip administered twice a day for 12 days measured on day 5 (reference value: 329 +/- 45 mm3); assay type: functional
HCT-15 [30] = assay: Anticancer activity against paclitaxel-resistant human HCT15 cells xenografted in BALB/c athymic mouse assessed as tumor volume at 40 mg/kg, ip administered twice a day for 12 days measured on day 7 (reference value: 495 +/- 109 mm3); assay type: functional
HCT-15 [31] = assay: Anticancer activity against paclitaxel-resistant human HCT15 cells xenografted in BALB/c athymic mouse assessed as tumor volume at 40 mg/kg, iv administered thrice every 4 days measured on day 12 (reference value: 779 +/- 144 mm3); assay type: functional
HCT-15 [32] = assay: Anticancer activity against paclitaxel-resistant human HCT15 cells xenografted in BALB/c athymic mouse assessed as tumor volume at 40 mg/kg, iv administered thrice every 4 days measured on day 7 (reference value: 495 +/- 109 mm3); assay type: functional
HCT-15 [33] = assay: Anticancer activity against paclitaxel-resistant human HCT15 cells xenografted in BALB/c athymic mouse assessed as tumor growth inhibition at 40 mg/kg, iv administered thrice every 4 days; assay type: functional, organism-based
HCT-15 [34] = assay: Anticancer activity against paclitaxel-resistant human HCT15 cells xenografted in BALB/c athymic mouse assessed as tumor volume at 40 mg/kg, iv administered thrice every 4 days measured on day 3 (reference value: 180 +/- 36 mm3); assay type: functional
HCT-15 [35] = assay: Anticancer activity against paclitaxel-resistant human HCT15 cells xenografted in BALB/c athymic mouse assessed as tumor volume at 40 mg/kg, iv administered thrice every 4 days measured on day 9 (reference value: 546 +/- 87 mm3); assay type: functional
HCT-15 [36] = assay: Anticancer activity against paclitaxel-resistant human HCT15 cells xenografted in BALB/c athymic mouse assessed as tumor volume at 40 mg/kg, iv administered thrice every 4 days measured on day 1 (reference value: 110 +/- 11 mm3); assay type: functional
HCT-15 [37] = assay: Anticancer activity against paclitaxel-resistant human HCT15 cells xenografted in BALB/c athymic mouse assessed as tumor volume at 40 mg/kg, iv administered thrice every 4 days measured on day 5 (reference value: 329 +/- 45 mm3); assay type: functional

Question: Which results are given for `CC(C)(C)OC(=O)NCCC(=O)n1cc(/C(C#N)=C/c2cccc3cnccc23)c2ccccc21`?
Answer: fold change (FC) (BJ [1]): 4.8; fold change (FC) (BJ [2]): 3.9

Question: For `N#C/C(=C\c1cccc2cnccc12)c1c[nH]c2ccccc12`, which “fold change (FC)” value (BJ [1]) is on record?
Answer: The value was 7.3.

Question: What about the “fold change (FC)” value (BJ [2]) of the same compound?
Answer: Its value is 5.

Question: For `CC(=O)NCCC(=O)n1cc(/C(C#N)=C/c2cccc3cnccc23)c2ccccc21`, which “fold change (FC)” value (BJ [1]) is on record?
Answer: The value was 2.8.

Question: And the “fold change (FC)” value (BJ [2])?
Answer: The value was 2.3.

Question: Which “fold change (FC)” value [3] does the source give for `N#C/C(=C\c1cccc2cnccc12)c1cn(C(=O)C2CCNCC2)c2ccccc12` here?
Answer: Its value is 14.48.

Question: What about the “fold change (FC)” value [4] of the same compound?
Answer: Its value is 7.03.

Question: And the half-life [5]?
Answer: Its half-life is > 24 h.

Question: What about the “t1/2(app)” value [6] of the same compound?
Answer: The value was 4.2 min.

Question: And the remaining at 24 h [7]?
Answer: Its remaining at 24 h is 75%.

Question: What about the Stability [8] of the same compound?
Answer: Its Stability is “Stable”.

Question: What about the half-life [9] of the same compound?
Answer: Its half-life is > 24 h.

Question: And the “fold change (FC)” value (BJ [1])?
Answer: Its value is 10.1.

Question: And the metabolised at 0.25 h [10]?
Answer: Its metabolised at 0.25 h is > 90%.

Question: What about the “t1/2(app)” value [11] of the same compound?
Answer: The value was 2.58 h.

Question: What about the “t1/2(app)” value [12] of the same compound?
Answer: Its value is 0.208 h.

Question: What about the remaining at 24 h [13] of the same compound?
Answer: Its remaining at 24 h is 75%.

Question: And the “fold change (FC)” value [14]?
Answer: Its value is 16.5.

Question: What about the “fold change (FC)” value [15] of the same compound?
Answer: Its value is 13.17.

Question: What about the “fold change (FC)” value (BJ [2]) of the same compound?
Answer: The value was 7.3.

Question: What about the “t1/2(app)” value [16] of the same compound?
Answer: Its value is 1.14 h.

Question: What does the source list for `CN1CCN(C(=O)Cn2cc(/C(C#N)=C/c3cccc4cnccc34)c3ccccc32)CC1`?
Answer: fold change (FC) (BJ [1]): 1.3; fold change (FC) (BJ [2]): 1.9

Question: Which results are given for `CN1CCN(CC(=O)n2cc(/C(C#N)=C/c3cccc4cnccc34)c3ccccc32)CC1.O=C(O)C(F)(F)F`?
Answer: Activity (HCT-15 [17]): 209 mm3; solubility [18]: 8000 µg/mL; Activity (HCT-15 [19]): 95 mm3; Activity (HCT-15 [20]): 143 mm3; Activity (HCT-15 [21]): 196 mm3; Activity (HCT-15 [22]): 96 mm3; Activity (HCT-15 [23]): 100 mm3; Activity (HCT-15 [24]): 258 mm3; Activity (HCT-15 [25]): 165 mm3; Activity (HCT-15 [26]): 244 mm3; Activity (HCT-15 [27]): 109 mm3; inhibition in vivo at 80 mg/kg (HCT-15 [28]): 75.8 to 76%; Activity (HCT-15 [29]): 199 mm3; Activity (HCT-15 [30]): 171 mm3

Question: For `CC(=O)O[C@H]1C(=O)[C@@]2(C)[C@H]([C@H](OC(=O)c3ccccc3)[C@]3(O)C[C@H](OC(=O)[C@H](O)[C@@H](NC(=O)c4ccccc4)c4ccccc4)C(C)=C1C3(C)C)[C@]1(OC(C)=O)CO[C@@H]1C[C@@H]2O` [PACLITAXEL], which Activity (HCT-15 [31]) is on record?
Answer: Its Activity is 638 mm3.

Question: What about the Activity (HCT-15 [32]) of the same compound?
Answer: The Activity was 321 mm3.

Question: And the TGI (HCT-15 [33])?
Answer: Its TGI is “Active”.

Question: What about the Activity (HCT-15 [34]) of the same compound?
Answer: The Activity was 152 mm3.

Question: What about the Activity (HCT-15 [35]) of the same compound?
Answer: Its Activity is 409 mm3.

Question: What about the Activity (HCT-15 [36]) of the same compound?
Answer: The Activity was 119 mm3.

Question: And the Activity (HCT-15 [37])?
Answer: Its Activity is 288 mm3.

Question: For `CCN(CC)C(=O)n1cc(/C(C#N)=C/c2cccc3cnccc23)c2ccccc21`, which “fold change (FC)” value (BJ [1]) is on record?
Answer: The value was 0.6.

Question: What about the “fold change (FC)” value (BJ [2]) of the same compound?
Answer: The value was 0.9.
